# Several values for one entry are separate records, joined by “and”; a condition that tells them apart may be missing. Equal values may be shown once.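 Protocol summary: plate cells (96-well), add compound at 5 concentrations, incubate 48 h, interpolate endpoints linearly. The concentration for 50% growth inhibition is given as GI50. Definition used: TGI = concentration required for complete inhibition of growth.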
# Experiments:
# Test in all cases: NCI tumour cell line growth inhibition, 48 h
# HCT-15 colon = test system: HCT-15 colon
# MDA-MB-435 = test system: MDA-MB-435
# PC-3 prostate = test system: PC-3 prostate
# M14 melanoma = test system: M14 melanoma
# NCI-H522 lung = test system: NCI-H522 lung
# HT29 colon = test system: HT29 colon
# U251 CNS = test system: U251 CNS
# SK-OV-3 ovarian = test system: SK-OV-3 ovarian
# SF-268 CNS = test system: SF-268 CNS
# NCI-H226 lung = test system: NCI-H226 lung
SMILES,TGI (HCT-15 colon),TGI (MDA-MB-435),TGI (PC-3 prostate),TGI (M14 melanoma),TGI (NCI-H522 lung),TGI (HT29 colon),TGI (U251 CNS),TGI (SK-OV-3 ovarian),TGI (SF-268 CNS),TGI (NCI-H226 lung),GI50 (HCT-15 colon),GI50 (MDA-MB-435),GI50 (PC-3 prostate),GI50 (M14 melanoma),GI50 (NCI-H522 lung),GI50 (HT29 colon),GI50 (U251 CNS),GI50 (SK-OV-3 ovarian),GI50 (SF-268 CNS),GI50 (NCI-H226 lung)
Cc1nc2sc3c(c2c(=O)[nH]1)CCCC3,> 100 µM,> 100 µM,> 100 µM,> 100 µM,> 100 µM,> 100 µM,> 100 µM,> 100 µM,> 100 µM,> 100 µM,–,–,–,–,–,–,–,–,–,–
CC(=O)Oc1ccccc1C(=O)Nc1ncc([N+](=O)[O-])s1,31.3 µM and > 95 µM,7.58 µM and 59.7 µM,6.42 µM and > 51.6 µM,7.23 µM and 55.9 µM,6.2 µM and 21.7 µM,13.5 µM and 97.5 µM,20.7 µM and > 100 µM,> 80.3 µM,> 79.7 µM,8.7 µM and 36.7 µM,2.94 µM,2.13 µM,1.66 µM,2.54 µM,1.63 µM,3.37 µM,1.38 µM,3.2 µM,3.35 µM,2.62 µM
C1=C\COCc2cc(ccc2OCCN2CCCC2)Nc2nccc(n2)-c2cccc(c2)COC/1,7.51 µM,4.65 µM,5.43 µM,4.72 µM,5.23 µM,5.04 µM,5.21 µM,6.19 µM,5.77 µM,5.09 µM,1.26 µM,1.53 µM,1.61 µM,1.75 µM,3.08 µM,1.18 µM,2.49 µM,3.62 µM,2.03 µM,3.19 µM
Cc1nc(-[n+]2nc(-c3ccncc3)nn2-c2ccccc2)sc1C,> 100 µM,> 100 µM,> 100 µM,> 100 µM,76.5 µM,> 100 µM,> 100 µM,67.5 µM,> 100 µM,95.9 µM,–,–,–,–,–,–,–,–,–,–
O=CN1CCN(CC(O)CN2CCCCC2)CC1 (stereo not given),> 100 µM,> 100 µM,> 100 µM,> 100 µM,> 100 µM,> 100 µM,> 100 µM,> 100 µM,> 100 µM,> 100 µM,–,–,–,–,–,–,–,–,–,–
O=C1NC(=O)/C(=C\c2ccccc2)C2=C1CCCC2,22.5 µM,3.49 µM,35.5 µM,12.8 µM,32.1 µM,44.1 µM,16.2 µM,27.8 µM,14.8 µM,23 µM,10.4 µM,1.82 µM,6.36 µM,3.72 µM,13.7 µM,14.9 µM,4.82 µM,14.6 µM,4.06 µM,10.8 µM
OCc1ccn2c1[C@@H](O)CC2,> 100 µM,> 100 µM,> 100 µM,> 100 µM,> 100 µM,> 100 µM,> 100 µM,> 100 µM,> 100 µM,> 100 µM,–,–,–,–,–,–,–,–,–,–
COc1cc(C(=O)N2CCN(c3ncccn3)CC2)c(N)cc1OCc1ccccc1,> 100 µM,> 100 µM,> 100 µM,> 100 µM,> 100 µM,> 100 µM,> 100 µM,> 100 µM,> 100 µM,> 100 µM,> 100 µM,> 100 µM,> 100 µM,> 100 µM,> 100 µM,> 100 µM,> 100 µM,> 100 µM,> 100 µM,> 100 µM

# From PubChem BioAssay (NCI)
